Legend:
Assay in all cases: Radiolabeled ATP kinase assay, panel of 371 kinases (Table S6)
Format in all cases: biochemical
[1] = target: T1, panel of 371 human kinases (Homo sapiens, UniProt P42681); settings: TXK; 0.1 μM; 10 μM ATP; read-out: % Enzyme Activity (relative to DMSO controls)
T1 construct: purchased Reaction Biology Corp
From the text: (§1) ; FIG. 38C). […]. Further targeted analyses, such as genetic knock-down or knock-out, may be warranted to parse the role of these additional kinases in our model of neurodegeneration.

[2] = target: T2, panel of 371 human kinases (Homo sapiens, UniProt O75676); settings: MSK2/RPS6KA4; 0.1 μM; 10 μM ATP; read-out: % Enzyme Activity (relative to DMSO controls)
T2 construct: purchased Reaction Biology Corp
From the text: as §1

[3] = target: T3, panel of 371 human kinases (Homo sapiens, UniProt P49137); settings: MAPKAPK2; 0.1 μM; 10 μM ATP; read-out: % Enzyme Activity (relative to DMSO controls)
T3 construct: purchased Reaction Biology Corp
From the text: as §1

[4] = target: T4, panel of 371 human kinases (Homo sapiens, UniProt P45985); settings: MKK4; 0.1 μM; 10 μM ATP; read-out: % Enzyme Activity (relative to DMSO controls)
T4 construct: purchased Reaction Biology Corp
From the text: as §1

[5] = target: T5, panel of 371 human kinases (Homo sapiens, UniProt P29597); settings: TYK2; 0.1 μM; 10 μM ATP; read-out: % Enzyme Activity (relative to DMSO controls)
T5 construct: purchased Reaction Biology Corp
T5 sequence (P29597 whole entry): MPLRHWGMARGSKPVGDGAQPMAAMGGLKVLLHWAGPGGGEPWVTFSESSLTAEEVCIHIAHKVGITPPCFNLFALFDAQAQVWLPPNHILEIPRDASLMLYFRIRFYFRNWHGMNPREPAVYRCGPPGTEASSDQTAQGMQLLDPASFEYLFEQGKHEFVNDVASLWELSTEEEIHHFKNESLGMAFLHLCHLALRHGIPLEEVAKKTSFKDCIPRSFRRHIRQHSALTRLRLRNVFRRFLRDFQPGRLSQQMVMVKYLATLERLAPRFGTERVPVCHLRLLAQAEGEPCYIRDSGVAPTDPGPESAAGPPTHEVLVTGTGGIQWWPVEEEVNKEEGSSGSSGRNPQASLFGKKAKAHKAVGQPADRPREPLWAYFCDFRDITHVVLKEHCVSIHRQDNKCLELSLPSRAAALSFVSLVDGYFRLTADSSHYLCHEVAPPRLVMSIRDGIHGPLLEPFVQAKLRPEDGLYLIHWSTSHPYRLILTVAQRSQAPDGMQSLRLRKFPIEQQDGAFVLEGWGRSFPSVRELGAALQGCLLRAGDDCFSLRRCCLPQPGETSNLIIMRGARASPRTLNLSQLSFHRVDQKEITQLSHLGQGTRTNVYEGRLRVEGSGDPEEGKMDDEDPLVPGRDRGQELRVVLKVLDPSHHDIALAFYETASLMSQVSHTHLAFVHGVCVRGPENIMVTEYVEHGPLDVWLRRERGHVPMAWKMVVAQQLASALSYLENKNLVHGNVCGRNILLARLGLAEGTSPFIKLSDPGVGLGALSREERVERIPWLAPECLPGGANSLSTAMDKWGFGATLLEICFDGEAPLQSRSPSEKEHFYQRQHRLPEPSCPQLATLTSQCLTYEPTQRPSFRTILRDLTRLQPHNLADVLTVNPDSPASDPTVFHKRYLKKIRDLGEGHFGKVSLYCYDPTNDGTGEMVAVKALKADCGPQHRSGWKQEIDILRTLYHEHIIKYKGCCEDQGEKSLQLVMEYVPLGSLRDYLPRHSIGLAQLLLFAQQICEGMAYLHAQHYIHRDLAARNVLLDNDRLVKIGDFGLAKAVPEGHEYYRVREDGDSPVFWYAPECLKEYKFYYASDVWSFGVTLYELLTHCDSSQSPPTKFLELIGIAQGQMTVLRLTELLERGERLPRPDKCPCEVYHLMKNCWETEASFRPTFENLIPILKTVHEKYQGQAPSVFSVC
From the text: as §1

[6] = target: T6, panel of 371 human kinases (Homo sapiens, UniProt O15530); settings: PDK1/PDPK1; 0.1 μM; 10 μM ATP; read-out: % Enzyme Activity (relative to DMSO controls)
T6 construct: purchased Reaction Biology Corp
T6 sequence (O15530 whole entry): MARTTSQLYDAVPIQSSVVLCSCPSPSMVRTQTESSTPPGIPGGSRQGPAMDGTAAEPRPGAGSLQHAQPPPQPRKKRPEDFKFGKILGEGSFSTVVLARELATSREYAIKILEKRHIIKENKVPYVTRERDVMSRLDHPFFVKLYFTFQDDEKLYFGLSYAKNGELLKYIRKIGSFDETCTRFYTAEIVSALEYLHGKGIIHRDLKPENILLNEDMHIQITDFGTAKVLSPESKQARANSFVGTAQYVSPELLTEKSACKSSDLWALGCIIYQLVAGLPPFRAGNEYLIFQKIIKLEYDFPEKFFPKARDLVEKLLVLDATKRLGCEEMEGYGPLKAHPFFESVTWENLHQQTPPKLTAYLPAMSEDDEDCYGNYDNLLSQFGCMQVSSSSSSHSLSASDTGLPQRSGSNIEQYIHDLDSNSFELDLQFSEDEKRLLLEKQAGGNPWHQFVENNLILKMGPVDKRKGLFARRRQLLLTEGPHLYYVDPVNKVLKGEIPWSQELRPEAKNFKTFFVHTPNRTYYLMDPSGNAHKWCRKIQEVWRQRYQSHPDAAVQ
From the text: as §1

[7] = target: T7, panel of 371 human kinases (Homo sapiens, UniProt P35626); settings: GRK3; 0.1 μM; 10 μM ATP; read-out: % Enzyme Activity (relative to DMSO controls)
T7 construct: purchased Reaction Biology Corp
From the text: as §1

[8] = target: T8, panel of 371 human kinases (Homo sapiens, UniProt P50613); settings: CDK7/cyclin H; 0.1 μM; 10 μM ATP; read-out: % Enzyme Activity (relative to DMSO controls)
T8 construct: purchased Reaction Biology Corp
T8 sequence (P50613 whole entry): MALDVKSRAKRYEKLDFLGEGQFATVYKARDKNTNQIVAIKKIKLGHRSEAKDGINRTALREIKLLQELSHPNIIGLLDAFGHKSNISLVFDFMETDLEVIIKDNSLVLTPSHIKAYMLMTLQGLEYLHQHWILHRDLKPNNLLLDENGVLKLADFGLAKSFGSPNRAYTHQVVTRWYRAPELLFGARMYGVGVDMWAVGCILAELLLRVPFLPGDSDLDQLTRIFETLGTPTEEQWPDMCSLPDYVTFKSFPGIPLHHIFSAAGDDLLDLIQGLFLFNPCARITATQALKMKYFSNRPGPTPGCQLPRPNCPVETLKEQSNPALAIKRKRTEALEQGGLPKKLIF
From the text: as §1

[9] = target: T9, panel of 371 human kinases (Homo sapiens, UniProt O15111); settings: IKKa/CHUK; 0.1 μM; 10 μM ATP; read-out: % Enzyme Activity (relative to DMSO controls)
T9 construct: purchased Reaction Biology Corp
From the text: as §1

[10] = target: T10, panel of 371 human kinases (Homo sapiens, UniProt Q06418); settings: TYRO3/SKY; 0.1 μM; 10 μM ATP; read-out: % Enzyme Activity (relative to DMSO controls)
T10 construct: purchased Reaction Biology Corp
From the text: as §1

[11] = target: T11, panel of 371 human kinases (Homo sapiens, UniProt P15735); settings: PHKg2; 0.1 μM; 10 μM ATP; read-out: % Enzyme Activity (relative to DMSO controls)
T11 construct: purchased Reaction Biology Corp
From the text: as §1

[12] = target: T12, panel of 371 human kinases (Homo sapiens, UniProt O96013); settings: PAK4; 0.1 μM; 10 μM ATP; read-out: % Enzyme Activity (relative to DMSO controls)
T12 construct: purchased Reaction Biology Corp
From the text: as §1

[13] = target: T13, panel of 371 human kinases (Homo sapiens, UniProt P53350); settings: PLK1; 0.1 μM; 10 μM ATP; read-out: % Enzyme Activity (relative to DMSO controls)
T13 construct: purchased Reaction Biology Corp
T13 sequence (P53350 whole entry): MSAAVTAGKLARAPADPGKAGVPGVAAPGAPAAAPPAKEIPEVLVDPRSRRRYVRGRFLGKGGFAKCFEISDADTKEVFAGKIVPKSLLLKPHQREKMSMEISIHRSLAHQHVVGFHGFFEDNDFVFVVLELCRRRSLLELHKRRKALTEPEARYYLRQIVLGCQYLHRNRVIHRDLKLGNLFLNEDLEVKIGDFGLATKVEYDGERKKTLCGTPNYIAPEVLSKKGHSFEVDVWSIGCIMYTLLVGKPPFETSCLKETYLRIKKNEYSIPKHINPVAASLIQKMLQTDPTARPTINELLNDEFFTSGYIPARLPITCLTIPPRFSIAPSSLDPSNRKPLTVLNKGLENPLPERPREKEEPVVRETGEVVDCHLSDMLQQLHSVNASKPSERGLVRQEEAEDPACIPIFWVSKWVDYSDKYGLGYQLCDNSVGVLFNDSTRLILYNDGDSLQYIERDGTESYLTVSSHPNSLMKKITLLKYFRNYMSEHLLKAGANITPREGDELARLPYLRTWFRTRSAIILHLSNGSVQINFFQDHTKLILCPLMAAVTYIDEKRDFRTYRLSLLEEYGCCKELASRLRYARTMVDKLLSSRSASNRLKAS
From the text: as §1

[14] = target: T14, panel of 371 human kinases (Homo sapiens, UniProt Q9UQM7); settings: CAMK2a; 0.1 μM; 10 μM ATP; read-out: % Enzyme Activity (relative to DMSO controls)
T14 construct: purchased Reaction Biology Corp
From the text: as §1

[15] = target: T15, panel of 371 human kinases (Homo sapiens, UniProt Q9H2G2); settings: SLK/STK2; 0.1 μM; 10 μM ATP; read-out: % Enzyme Activity (relative to DMSO controls)
T15 construct: purchased Reaction Biology Corp
From the text: as §1

[16] = target: T16, panel of 371 human kinases (Homo sapiens, UniProt Q9UKE5); settings: TNIK; 0.1 μM; 10 μM ATP; read-out: % Enzyme Activity (relative to DMSO controls)
T16 construct: purchased Reaction Biology Corp
From the text: as §1

[17] = target: T17, panel of 371 human kinases (Homo sapiens, UniProt P49841); settings: GSK3b; 0.1 μM; 10 μM ATP; read-out: % Enzyme Activity (relative to DMSO controls)
T17 construct: purchased Reaction Biology Corp
From the text: as §1

[18] = target: T18, panel of 371 human kinases (Homo sapiens, UniProt Q8N568); settings: DCAMKL2; 0.1 μM; 10 μM ATP; read-out: % Enzyme Activity (relative to DMSO controls)
T18 construct: purchased Reaction Biology Corp
From the text: as §1

[19] = target: T19, panel of 371 human kinases (Homo sapiens, UniProt P54756); settings: EPHA5; 0.1 μM; 10 μM ATP; read-out: % Enzyme Activity (relative to DMSO controls)
T19 construct: purchased Reaction Biology Corp
T19 sequence (P54756 25-1037): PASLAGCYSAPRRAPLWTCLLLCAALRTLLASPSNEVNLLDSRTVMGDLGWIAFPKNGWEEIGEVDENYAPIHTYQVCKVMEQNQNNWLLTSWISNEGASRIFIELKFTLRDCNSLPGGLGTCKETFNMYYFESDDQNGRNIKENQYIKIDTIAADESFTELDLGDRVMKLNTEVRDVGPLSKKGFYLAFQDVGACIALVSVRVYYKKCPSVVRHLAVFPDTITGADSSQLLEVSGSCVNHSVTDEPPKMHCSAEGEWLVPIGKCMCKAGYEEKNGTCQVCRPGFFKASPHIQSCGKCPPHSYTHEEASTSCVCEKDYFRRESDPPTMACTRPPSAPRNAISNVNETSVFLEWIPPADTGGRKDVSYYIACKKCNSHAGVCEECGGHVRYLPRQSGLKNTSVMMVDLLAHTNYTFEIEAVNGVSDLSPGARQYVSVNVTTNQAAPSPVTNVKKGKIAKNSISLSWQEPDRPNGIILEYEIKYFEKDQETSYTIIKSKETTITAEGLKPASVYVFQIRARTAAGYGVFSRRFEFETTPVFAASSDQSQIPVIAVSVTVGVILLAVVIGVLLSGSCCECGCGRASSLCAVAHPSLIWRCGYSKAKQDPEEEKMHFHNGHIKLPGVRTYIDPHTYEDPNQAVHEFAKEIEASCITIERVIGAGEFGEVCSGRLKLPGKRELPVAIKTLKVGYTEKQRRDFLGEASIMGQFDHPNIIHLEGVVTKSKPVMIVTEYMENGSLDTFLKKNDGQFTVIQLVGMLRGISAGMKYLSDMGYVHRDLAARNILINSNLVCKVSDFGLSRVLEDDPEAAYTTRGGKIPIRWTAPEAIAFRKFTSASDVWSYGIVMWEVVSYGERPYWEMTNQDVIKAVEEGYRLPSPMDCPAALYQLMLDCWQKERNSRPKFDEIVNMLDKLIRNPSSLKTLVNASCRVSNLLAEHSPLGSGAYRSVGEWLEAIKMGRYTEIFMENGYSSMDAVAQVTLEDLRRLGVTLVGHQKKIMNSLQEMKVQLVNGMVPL
From the text: as §1

[20] = target: T20, panel of 371 human kinases (Homo sapiens, UniProt P48729); settings: CK1a1; 0.1 μM; 10 μM ATP; read-out: % Enzyme Activity (relative to DMSO controls)
T20 construct: purchased Reaction Biology Corp
T20 sequence (P48729 whole entry): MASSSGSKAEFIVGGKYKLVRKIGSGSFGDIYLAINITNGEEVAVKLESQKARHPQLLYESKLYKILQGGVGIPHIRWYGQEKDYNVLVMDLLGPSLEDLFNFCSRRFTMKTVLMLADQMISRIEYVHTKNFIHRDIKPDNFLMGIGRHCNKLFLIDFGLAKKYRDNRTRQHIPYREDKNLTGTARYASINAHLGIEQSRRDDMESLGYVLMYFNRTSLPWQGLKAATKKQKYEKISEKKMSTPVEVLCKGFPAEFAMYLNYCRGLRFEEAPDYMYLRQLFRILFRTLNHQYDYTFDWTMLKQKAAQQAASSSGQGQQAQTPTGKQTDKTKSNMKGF
From the text: as §1

[21] = target: T21, panel of 371 human kinases (Homo sapiens, UniProt P32298); settings: GRK4; 0.1 μM; 10 μM ATP; read-out: % Enzyme Activity (relative to DMSO controls)
T21 construct: purchased Reaction Biology Corp
T21 sequence (P32298 whole entry): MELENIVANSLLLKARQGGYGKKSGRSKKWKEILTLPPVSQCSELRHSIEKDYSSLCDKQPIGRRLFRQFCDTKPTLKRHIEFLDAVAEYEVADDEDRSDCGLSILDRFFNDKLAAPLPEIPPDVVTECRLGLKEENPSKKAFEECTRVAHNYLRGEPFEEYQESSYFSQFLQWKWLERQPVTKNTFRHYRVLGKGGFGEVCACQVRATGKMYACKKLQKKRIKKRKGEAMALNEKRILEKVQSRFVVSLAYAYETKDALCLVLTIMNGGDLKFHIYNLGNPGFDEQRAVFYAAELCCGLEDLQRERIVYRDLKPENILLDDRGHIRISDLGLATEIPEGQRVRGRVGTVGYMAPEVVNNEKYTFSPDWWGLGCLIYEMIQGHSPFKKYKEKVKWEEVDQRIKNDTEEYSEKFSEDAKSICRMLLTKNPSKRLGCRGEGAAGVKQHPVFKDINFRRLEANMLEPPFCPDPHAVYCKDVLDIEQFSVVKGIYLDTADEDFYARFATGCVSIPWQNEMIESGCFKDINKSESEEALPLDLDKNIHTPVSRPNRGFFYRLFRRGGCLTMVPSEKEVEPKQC
From the text: as §1

[22] = target: T22, panel of 371 human kinases (Homo sapiens, UniProt P78368); settings: CK1g2; 0.1 μM; 10 μM ATP; read-out: % Enzyme Activity (relative to DMSO controls)
T22 construct: purchased Reaction Biology Corp
T22 sequence (P78368 whole entry): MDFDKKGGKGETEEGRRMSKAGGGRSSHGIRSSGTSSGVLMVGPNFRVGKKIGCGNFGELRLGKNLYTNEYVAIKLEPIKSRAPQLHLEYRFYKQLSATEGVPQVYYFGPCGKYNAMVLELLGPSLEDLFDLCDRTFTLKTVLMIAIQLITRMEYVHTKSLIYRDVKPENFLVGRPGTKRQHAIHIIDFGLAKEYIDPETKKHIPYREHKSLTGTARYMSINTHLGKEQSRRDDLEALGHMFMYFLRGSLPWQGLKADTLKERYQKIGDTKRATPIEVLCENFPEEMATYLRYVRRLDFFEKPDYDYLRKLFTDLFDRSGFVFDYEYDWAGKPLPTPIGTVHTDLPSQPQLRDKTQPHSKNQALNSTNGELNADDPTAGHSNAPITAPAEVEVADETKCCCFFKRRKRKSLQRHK
From the text: as §1

[23] = target: T23, panel of 371 human kinases (Homo sapiens, UniProt Q13554); settings: CAMK2b; 0.1 μM; 10 μM ATP; read-out: % Enzyme Activity (relative to DMSO controls)
T23 construct: purchased Reaction Biology Corp
From the text: as §1

[24] = target: T24, panel of 371 human kinases (Homo sapiens, UniProt P00533); settings: EGFR; 0.1 μM; 10 μM ATP; read-out: % Enzyme Activity (relative to DMSO controls)
T24 construct: purchased Reaction Biology Corp
From the text: as §1

Row | Compound | remaining activity at 0.1 µM [1] | remaining activity at 0.1 µM [2] | remaining activity at 0.1 µM [3] | remaining activity at 0.1 µM [4] | remaining activity at 0.1 µM [5] | remaining activity at 0.1 µM [6] | remaining activity at 0.1 µM [7] | remaining activity at 0.1 µM [8] | remaining activity at 0.1 µM [9] | remaining activity at 0.1 µM [10] | remaining activity at 0.1 µM [11] | remaining activity at 0.1 µM [12] | remaining activity at 0.1 µM [13] | remaining activity at 0.1 µM [14] | remaining activity at 0.1 µM [15] | remaining activity at 0.1 µM [16] | remaining activity at 0.1 µM [17] | remaining activity at 0.1 µM [18] | remaining activity at 0.1 µM [19] | remaining activity at 0.1 µM [20] | also measured
1 | CN1CCN(Cc2ccc(-c3cnc4[nH]cc(-c5ccc6[nH]ccc6c5)c4c3)cc2)CC1 [Compound 1, 3-(1H-Indol-5-yl)-5-(4-((4-methylpiperazin-1-yl)methyl)phenyl)-1H-pyrrolo[2,3-b]pyridine, reference compound] | 85.3% | 114% | 96.9% | 105% | 90.8% | 110% | 106% | 91.4% | 96.8% | 86.8% | 86% | 88% | 98.6% | 101% | 93.2% | 5.84% | 99% | 87.1% | 94.2% | 102% | remaining activity at 0.1 µM [21]: 106%; remaining activity at 0.1 µM [22]: 102%; remaining activity at 0.1 µM [23]: 95.5%; remaining activity at 0.1 µM [24]: 103%
2 | OCCN1CCN(Cc2ccc(-c3cnc4[nH]cc(-c5cccc(Cl)c5)c4c3)cc2)CC1 [Compound 12k, 2-(4-(4-(3-(3-Chlorophenyl)-1H-pyrrolo[2,3-b]pyridin-5-yl)benzyl)piperazin-1-yl)ethan-1-ol] | 87% | 110% | 99.6% | 110% | 92.9% | 92.7% | 104% | 89.2% | 101% | 94.3% | 95.2% | 93.8% | 100% | 110% | 83.5% | -0.01% | 89.6% | 87.6% | 98.8% | 91.6% | remaining activity at 0.1 µM [21]: 106%; remaining activity at 0.1 µM [22]: 102%; remaining activity at 0.1 µM [23]: 92.2%; remaining activity at 0.1 µM [24]: 96.2%
